Where a name gives a salt, the structure may show the parent alone.

From patent US11465978B2, “Anthranilic amides and the use thereof” (THE ADMINISTRATORS OF THE TULANE EDUCATIONAL FUND, priority 2013, dated 2022) come the findings set out here.

The subject of one experiment is pERK5. As to the kind of experiment: Western blot, inhibition of EGF-mediated formation of pERK5 in MDA-MB-231 cells. The note with it: for pERK-5 decrease (%) / pERK-5 relative activity (%): Example 3 table, MDA-MB-231, EGF stimulation; for pERK-5 decrease (%): DMSO = 0; for inhibition at 10 µM: Homo sapiens, MDA-MB-231, Table 1, MDA-MB-231, compounds 10 μM 30 min, then EGF 50 ng/mL 15 min, read-out: cellular pERK5 decrease (%); for pERK-5 relative activity (%): DMSO = 100; for cellular pERK5 activation (printed in the decrease column): Table 1, cell marked 'activation'. The experiment is classed as cell-based. How it is done:
(§1) FIG. 9 is a set of bar graphs showing a Western blot analysis of potential MEK5 inhibitors. The MDA-MB-231 triple negative breast cancer cell line was pretreated with compounds (10 μM) for 30 minutes followed by stimulation with epidermal growth factor (EGF, 50 ng/mL) for 15 minutes. Vehicle-treated cells were pretreated with DMSO for 30 minutes prior to EGF stimulation for 15 minutes. Protein visualization and quantification analysis were performed using LI-COR Odyssey Imager. * P<0.05 vs. Vehicle, one-way ANOVA followed by Tukey-Kramer test (n=3).
(§2) A number of compounds were tested for their potential as MEK5 inhibitors. The MDA-MB-231 triple negative breast cancer cell line was pretreated with 10 μM of compounds 24, 9b, 9a, 9c, 9e, 9f, 9d, 9h, 23, 7, and 15 for 30 minutes followed by stimulation with epidermal growth factor (EGF, 50 ng/mL) for 15 minutes. Vehicle-treated cells and known MEK1/2 inhibitor cells were pretreated with DMSO and U0126 respectively for 30 minutes prior to EGF stimulation for 15 minutes. Protein visualization and quantification analysis was performed using LI-COR Odyssey Imager. The results of the Western blot analysis are shown in FIG. 9. * P<0.05 vs. Vehicle, one-way ANOVA followed by Tukey-Kramer test (n=3).
(§3) MDA-MB-231 cells were grown on 10 cm cell culture plates [Sarstedt] in Dulbecco's Modified Eagle's Medium (DMEM; Gibco) with Ham's F12 Nutrient Mixture (1:1) (Invitrogen), 10% heat-inactivated FBS [Atlanta Biological and 0.5% penicillin/streptomycin [Gibco]. Cells were maintained at 37° C. with 5% CO2. Plating of the cells was done 36 hours before treatment in 35 mm culture plates [Sarstedt] and allowed to reach confluence. To test MEK-5 inhibitors, the cells were treated with epidermal growth factor (EGF; Sigma-Aldrich) 30 min after treatment with the compounds. 15 min after the addition of EGF, the cells were washed with 1×PBS [Sigma-Aldrich] and then lysed in 1% Triton X-100 buffer containing 20 mM Tris (pH 6.8), 137 mM NaCl, 25 mM beta glycerophosphate, 2 mM NaPPi, 2 mM EDTA, 1 mM Na3VO4, 10% glycerol, 5 μg/mL leupeptin, 5 μg/mL aprotinin, 2 mM benzamidine, 0.5 mM DTT, and 1 mM PMSF. The lysates were then centrifuged at 10,000 rpm for 10 min at 4° C.
(§4) Total protein content was assessed by Bradford Bio-Rad protein assay (Cat. No. 500-0006, Bio-Rad, Hercules, Calif.) and 30 μg of protein was loaded on a 8% SDS-PAGE gel for phosphorylated and total ERK1/2 and ERK5 proteins. After running the samples, gels were transferred to a nitrocellulose membrane (Cat. No. 926-31092, Licor Biosciences, Lincoln, Nebr.). After transfer, membranes were washed for 5 min with 1×PBS and blocked for 1 h in a Casein Blocking Buffer (Cat. No. 927-40200, Licor Biosciences) at room temperature. Membranes were then incubated overnight at 4° C. in primary antibody in CBB with 0.2% Tween-20. Antibodies included rabbit anti-phospho-ERK1/2 (Dilution—1:1000, Cat. No. 9101, Cell Signaling, Beverly, Mass.), mouse anti-total ERK1/2 (Dilution—1:1000, Cat. No. 9107, Cell Signaling), and rabbit anti-total ERK5 (Dilution—1:1,000, Cat. No. 3372, Cell Signaling). Mouse anti-α-Tubulin (Dilution—1:10,000, Cat. No. T5168, Sigma-Aldrich) was used as a loading control. After incubation with primary antibody, blots were washed in 1×PBS solution with 0.2% Tween-20 (1×PBS-T) and incubated with goat anti-rabbit (Dilution—1:10,000, Cat. No. 926-68021, LICOR Biosciences) and goat anti-mouse (Dilution—1:10,000, Cat. No. 926-32210, LICOR Biosciences) secondary antibodies for 1 h at room temperature. After washing the membranes with 1×PBS-T, the protein bands were visualized on an Odyssey Infrared Imager and quantified with Odyssey software (LICOR Biosciences).
In general terms: A western blot detects proteins with antibodies after separation by electrophoresis.

The subject of the next experiment is pERK1/2. Description: Western blot, inhibition of EGF-mediated formation of pERK1/2 in MDA-MB-231 cells. The class given is cell-based. As to conditions: for pERK-½ decrease (%) / pERK-½ relative activity (%): Example 3 table, MDA-MB-231, EGF stimulation; for pERK-½ decrease (%): DMSO = 0; for inhibition at 10 µM: Homo sapiens, MDA-MB-231, Table 1, MDA-MB-231, compounds 10 μM 30 min, then EGF 50 ng/mL 15 min, read-out: cellular pERK1/2 decrease (%); for pERK-½ relative activity (%): DMSO = 100; for cellular pERK1/2 activation (printed in the decrease column): Table 1, cell marked 'activation'. As for the experimental part: as §1, §2, §3, §4

For `O=C(O)c1ccc(F)c(F)c1Nc1ccc(I)cc1F` [Compound 7, 3,4-difluoro-2-((2-fluoro-4-iodophenyl)amino)benzoic acid], in the experiment on pERK5, the “pERK-5 decrease (%)” value is on record as 20.1% and the inhibition at 10 µM was determined as 20.1%. Besides, in the experiment with pERK1/2, the “pERK-½ decrease (%)” value is reported as 98.5% and the inhibition at 10 µM was found to be 98.5%.
`CN(C)C(=O)c1ccc(F)c(F)c1Nc1ccc(I)cc1F` [Compound 9a, 3,4-difluoro-2-((2-fluoro-4-iodophenyl)amino)-N,N-dimethylbenzamide]: in the experiment on pERK5, the “pERK-5 decrease (%)” value worked out at 0.2% and the inhibition at 10 µM is 0.2%. In the experiment on pERK1/2, the “pERK-½ decrease (%)” value is given as 87.3% and the inhibition at 10 µM came out at 87.3%.
In the case of `CCN(CC)C(=O)c1ccc(F)c(F)c1Nc1ccc(I)cc1F` [Compound 9b, N,N-diethyl-3,4-difluoro-2-((2-fluoro-4-iodophenyl)amino)benzamide], in the experiment with pERK5, the “pERK-5 relative activity (%)” value is given as 7.4% and the “cellular pERK5 activation (printed in the decrease column)” value is listed as “activation (−7.4) %”. In the experiment with pERK1/2, the “pERK-½ decrease (%)” value is 5.5% and the inhibition at 10 µM is 5.5%.
As to `CNC(=O)c1ccc(F)c(F)c1Nc1ccc(I)cc1F` [Compound 9c, 3,4-difluoro-2-((2-fluoro-4-iodophenyl)amino)-N-methylbenzamide], in the experiment on pERK5, the “pERK-5 decrease (%)” value came out at 20.4% and the inhibition at 10 µM was 20.4%. In the experiment with pERK1/2, the “pERK-½ decrease (%)” value amounted to 99.6% and the inhibition at 10 µM was determined as 99.6%.
`CCNC(=O)c1ccc(F)c(F)c1Nc1ccc(I)cc1F` [Compound 9d, N-ethyl-3,4-difluoro-2-((2-fluoro-4-iodophenyl)amino)benzamide]: in the experiment on pERK5, the “pERK-5 decrease (%)” value turned out to be 8.5% and the inhibition at 10 µM turned out to be 8.5%. In addition, in the experiment with pERK1/2, the “pERK-½ decrease (%)” value is 98.6% and the inhibition at 10 µM turned out to be 98.6%.
Consider `COC(=O)c1ccc(F)c(F)c1Nc1ccc(I)cc1F` [Compound 9e, Methyl 3,4-difluoro-2-((2-fluoro-4-iodophenyl)amino)benzoate], for which, in the experiment with pERK5, the “pERK-5 decrease (%)” value is reported as 13.0% and the inhibition at 10 µM was found to be 13%. In addition, in the experiment on pERK1/2, the “pERK-½ decrease (%)” value came out at 98.9% and the inhibition at 10 µM was 98.9%.
With `O=C(c1ccc(F)c(F)c1Nc1ccc(I)cc1F)N1CCNCC1` [Compound 9f, (3,4-difluoro-2-((2-fluoro-4-iodophenyl)amino)phenyl)(piperazin-1-yl)methanone hydrochloride], in the experiment with pERK5, the “pERK-5 relative activity (%)” value was found to be 6.2% and the “cellular pERK5 activation (printed in the decrease column)” value is listed as “activation (+4.4) %”. In addition, in the experiment with pERK1/2, the “pERK-½ decrease (%)” value was 99.0% and the inhibition at 10 µM was determined as 99%.
For `CC(C)(C)OC(=O)N1CCN(C(=O)c2ccc(F)c(F)c2Nc2ccc(I)cc2F)CC1` [Compound 9g, Tert-butyl 4-(3,4-difluoro-2-((2-fluoro-4-iodophenyl)amino)benzoyl)piperazine-1-carboxylate], in the experiment with pERK5, the “pERK-5 decrease (%)” value came to 8.4% and the inhibition at 10 µM stood at 8.4%. Moreover, in the experiment on pERK1/2, the “pERK-½ decrease (%)” value worked out at 70.9% and the inhibition at 10 µM was determined as 70.9%.
With `CN(C)CCN(C)C(=O)c1ccc(F)c(F)c1Nc1ccc(I)cc1F` [Compound 9h, N-(2-(dimethylamino)ethyl)-3,4-difluoro-2-((2-fluoro-4-iodophenyl)amino)-N-methylbenzamide hydrochloride], in the experiment with pERK5, the “pERK-5 decrease (%)” value was determined as 9.4% and the inhibition at 10 µM worked out at 9%. In the experiment on pERK1/2, the “pERK-½ decrease (%)” value turned out to be 27.9% and the inhibition at 10 µM worked out at 28.2%.
For the molecule `O=C(O)c1ccc(F)c(F)c1Nc1ccccc1` [Compound 12, 3,4-difluoro-2-(phenylamino)benzoic acid], in the experiment on pERK5, the “pERK-5 decrease (%)” value was 10.4%. In addition, the “pERK-½ decrease (%)” value with pERK1/2 is 7.1%.
Take `O=C(O)c1ccc(F)c(F)c1Nc1ccccc1F` [Compound 13, 3,4-difluoro-2-((2-fluorophenyl)amino)benzoic acid]: the “pERK-5 decrease (%)” value in the experiment with pERK5 is given as 11.1%. Also, the “pERK-½ relative activity (%)” value with pERK1/2 was determined as 7.1%.
Take `CN1CCN(C(=O)c2ccc(F)c(F)c2Nc2ccccc2)CC1` [Compound 15]: in the experiment with pERK5, the “pERK-5 decrease (%)” value is recorded as 82.4% and the inhibition at 10 µM is 82.4%. Moreover, in the experiment on pERK1/2, the “pERK-½ relative activity (%)” value worked out at 8.5% and the “cellular pERK1/2 activation (printed in the decrease column)” value is “activation (+8.5) %”.
For the molecule `CN1CCN(C(=O)c2ccccc2Nc2ccccc2)CC1` [Compound 23, (4-methylpiperazin-1-yl)(2-(phenylamino)phenyl)methanone], in the experiment with pERK5, the “pERK-5 decrease (%)” value is reported as 71%. For the same molecule, in the experiment with pERK1/2, the “pERK-½ decrease (%)” value turned out to be 29.3%, the inhibition at 10 µM turned out to be 29.6% and the “cellular pERK1/2 activation (printed in the decrease column)” value was “+5.5%”.
For the molecule `CN1CCN(C(=O)c2ccccc2Nc2ccc(I)cc2F)CC1` [Compound 24, (2-((2-fluoro-4-iodophenyl)amino)phenyl)(4-methylpiperazin-1-yl)methanone hydrochloride], in the experiment on pERK5, the “pERK-5 decrease (%)” value is 30.9% and the inhibition at 10 µM was 20.9%. Moreover, in the experiment with pERK1/2, the “pERK-½ decrease (%)” value turned out to be 33.5% and the inhibition at 10 µM was found to be 33.5%.
Turning to `N#CC(=C(/N)Sc1ccccc1N)/C(C#N)=C(\N)Sc1ccccc1N` [Compound U0126, reference compound], the “pERK-5 decrease (%)” value in the experiment with pERK5 is recorded as 43%. Also, the “pERK-½ decrease (%)” value in the experiment with pERK1/2 was determined as 99.6%.
In the case of `O=C(c1ccc(F)c(F)c1Nc1ccc(I)cc1F)N1CCOCC1` [IC-3-93], the inhibition at 10 µM with pERK5 amounted to 76.3%; in the experiment with pERK1/2 it was 47.8%.
For `O=C(c1ccc(F)c(F)c1Nc1ccc(I)cc1F)N1CCCCC1` [IC-3-97], in that order: 87.1% and 42.4%.
As to `O=C(NCCO)c1ccc(F)c(F)c1Nc1ccc(I)cc1F` [IC-3-102], the values for the inhibition at 10 µM in the experiment on pERK5 and with pERK1/2 were 47.9% and -31.1%, respectively.
`O=C(N[C@@H](CO)C(=O)O)c1ccc(F)c(F)c1Nc1ccc(I)cc1F` [IC-3-111]: the inhibition at 10 µM in the experiment with pERK1/2 turned out to be 85%.
Consider `O=C(N[C@H](CO)C(=O)O)c1ccc(F)c(F)c1Nc1ccc(I)cc1F` [IC-3-117], for which the inhibition at 10 µM in the experiment on pERK5 was 127%; in the experiment with pERK1/2 it was 80.8%.
For `CN1CCN(C(=O)c2ccc(F)c(F)c2Nc2ccc(I)cc2F)CC1` [IC-D-122b], in that order: 33% and 39%.
As to `O=C(NOC[C@H](O)CO)c1ccc(F)c(F)c1Nc1ccc(I)cc1F` [PD 0325901, reference compound], in the experiment on pERK5, the “pERK-5 decrease (%)” value worked out at 95.9%. For the same molecule, the “pERK-½ decrease (%)” value in the experiment on pERK1/2 stood at 99.7%.
For the molecule `CN(c1ccc(I)cc1F)c1c(C(=O)O)ccc(F)c1F` [SC-2-32, 3,4-difluoro-2-((2-fluoro-4-iodophenyl)(methyl)amino)benzoic acid], in the experiment on pERK5, the “pERK-5 relative activity (%)” value turned out to be 5.5%. In the experiment on pERK1/2, the “pERK-½ decrease (%)” value was determined as 33.5%.
`CN1CCN(C(=O)c2ccc(F)c(F)c2Nc2ccccc2F)CC1.O=C(O)/C=C/C(=O)O` [SC-2-45, (3,4-difluoro-2-((2-fluorophenyl)amino)phenyl)(4-methylpiperazin-1-yl)methanone mono-fumarate]: the “pERK-5 decrease (%)” value in the experiment on pERK5 was found to be 40.5%. The “pERK-½ decrease (%)” value in the experiment with pERK1/2 was 16.5%.
